Patent US20100209345A1, “Fluorinated Ligands for Targeting Peripheral Benzodiazepine Receptors” (Australian Nuclear Science & Technology Organisation, priority 2006, published 2010)
Values joined by “and” are separate entries in the source; they are usually repeats but may differ in a detail not shown here. Identical values can stand only once.

Experiments:
[1] = biological target: central benzodiazepine receptors; assay: In vitro binding, [3H]-Flumazenil, brain cortex membrane preparation; details: for IC50: [3H]-Flumazenil (2 nM), 25° C., 45 min, read-out: CBR IC50; for CBR, % @ 10^−5M: [3H]-Flumazenil
Description: (§1) Non-specific binding was determined with Flumazenil (20 μM). In both cases, incubations were terminated by rapid filtration through Whatman GF/B glass fibre. Filters were immediately washed 3 times with 5 mL ice-cold 50 mM Tris/HCl at pH 7.4. Filters were counted in a β-scintillation counter (Packard) to measure the amount of bound radioactivity. The IC50 of the compounds for the peripheral benzodiazepine binding site and the central benzodiazepine receptor were calculated using Kell 6 software.

[2] = biological target: T1, peripheral benzodiazepine binding site (Rattus norvegicus, UniProt P16257); assay: In vitro binding, [3H]-PK11195, kidney membrane preparation; details: PBR IC50 (nM), [3H]-PK11195 (2 nM), 4° C., 1 h
T1 construct: diluted kidney membrane preparation (200 μg); from tissue; host or cells: kidney membrane preparation
Description: Non-specific binding was determined with PK11195 (10 μM).
as §1

[3] = Biodistribution of 18F-labelled tracers in rats; assay type: in vivo; details: SD rats; for Biodistribution: Adrenals / Biodistribution: Bladder / Biodistribution: Blood / Biodistribution: Bone / Biodistribution: Brain / Biodistribution: GIT / Biodistribution: Heart / Biodistribution: Kidney / Biodistribution: Liver / Biodistribution: Lungs / Biodistribution: Muscle / Biodistribution: Olfactory bulbs / Biodistribution: Pancreas / Biodistribution: Skin / Biodistribution: Spleen / Biodistribution: Stomach / Biodistribution: Testes / Biodistribution: Thymus / Biodistribution: Thyroid: decay correction not stated
Description: [^18F]Fluoride, in the form of H^18F, was produced by the ^18O(p,n)^18F nuclear reaction by bombardment of ^18O-enriched water target. The aqueous [^18F]fluoride solution was added to a 2.5-mL wheaton vial containing dry acetonitrile (1 mL), Kryptofix 2.2.2 (5 mg, 13.3 μmol) and potassium carbonate (2 mg, 14.5 μmol). The solvent was evaporated under a stream of nitrogen at 90° C. with a reducing vacuum. This azeotropic drying was repeated twice by further addition of acetonitrile (2×1 mL). The tosylate precursor 2-(2-(4-(2-tosylethoxy)phenyl)-6-chloroimidazo[1,2-a]pyridin-3-yl)-N,N-diethylacetamide (2 mg, 3.6 μmol) was dissolved in acetonitrile (1 ml) and added to the dried K222.K2CO3.KF complex. Stirring and heating at 90° C. continued for 10 to 15 mins before the reaction mixture was diluted with mobile phase and purified by reverse phase HPLC on an Alltech Alltima, C18, 10μ, 250×22 mm column eluting at 10 mLs/min with 45% acetonitrile, 55% water with 0.1% TFA.
The biodistribution of PBR132* was undertaken in SD rats and analysis up to 4 h p.i. in the brain and peripheral tissues was performed. The specificity and selectivity of the tracer were assessed by pre-treatment with PBR and Central benzodiazepine receptor (CBR) specific ligands (1 mg/kg) 5 min prior to injection of PBR132*.
The biodistribution of PBR 147* was performed in SD rats and brain and peripheral tissues were analysised at 15, 30 min, 1, and 4 h p.i. The specificity and selectivity of the tracer was assessed by pre-treatment of the animals with the PBR ligands PK11195 and Ro 5-4864 and with Flumazenil for CBR at 1 mg/kg 5 min prior to injection of PBR 147*
The biodistribution of PBR102* and PBR111* were performed in SD rats and brain and peripheral tissues analysed at 15, 30 min, 1, and 4 h p.i. The specificity and selectivity of the tracers were assessed by pre-treatment with the PBR ligands PK11195 and Ro 5-4864 and with Flumazenil for CBR at 1 mg/kg 5 min prior to injection of the corresponding tracers.
The specificity and selectivity of the tracers were assessed by pre-treatment with the PBR ligands PK11195 and Ro 5-4864 and with Flumazenil for CBR at 1 mg/kg 5 min prior to injection of the corresponding tracers.

CN(C(=O)Cc1c(-c2ccc(OCCF)cc2)nc2ccc(Cl)cn12)c1ccccc1 [PBR 149, 2-(2-(4-(2-fluoroethoxy)phenyl)-6-chloroimidazo[1,2-a]pyridin-3-yl)-N-methyl-N-phenylacetamide]
IC50 [1]: 0.357 µM
chromatographic logP (LogP HPLC): 3.57 ± 0.11
IC50 [2]: 4.7 nM

CCN(CC)C(=O)Cc1c(-c2ccc(OCCF)cc2)nn2c(C)cc(C)nc12 [PBR099, 2-(2-(4-(2-fluoroethoxy)phenyl)-5,7-dimethylpyrazolo[1,5-a]pyrimidin-3-yl)-N,N-diethylacetamide]
IC50 [1]: > 5 µM
chromatographic logP (LogP HPLC): 2.54 ± 0.08
Biodistribution: Adrenals ([3]; 15 min): 5.64 ± 0.53 % ID/g
Biodistribution: Bladder ([3]; 15 min): 0.46 ± 0.18 % ID/g
Biodistribution: Blood ([3]; 15 min): 0.23 ± 0.03 % ID/g
Biodistribution: Bone ([3]; 15 min): 0.64 ± 0.03 % ID/g
Biodistribution: Brain ([3]; 15 min): 0.21 ± 0.01 % ID/g
Biodistribution: GIT ([3]; 15 min): 0.83 ± 0.09 % ID/g
Biodistribution: Heart ([3]; 15 min): 5.86 ± 0.44 % ID/g
Biodistribution: Kidney ([3]; 15 min): 3.9 % ID/g and 3.85 ± 0.24 % ID/g
Biodistribution: Liver ([3]; 15 min): 0.63 ± 0.06 % ID/g
Biodistribution: Lungs ([3]; 15 min): 14.55 ± 1.35 % ID/g
Biodistribution: Muscle ([3]; 15 min): 0.65 ± 0.14 % ID/g
Biodistribution: Olfactory bulbs ([3]; 15 min): 0.35 % ID/g and 0.35 ± 0.03 % ID/g
Biodistribution: Pancreas ([3]; 15 min): 1.70 ± 0.13 % ID/g
Biodistribution: Skin ([3]; 15 min): 0.35 ± 0.04 % ID/g
Biodistribution: Spleen ([3]; 15 min): 4.60 ± 0.29 % ID/g
Biodistribution: Stomach ([3]; 15 min): 0.45 ± 0.18 % ID/g
Biodistribution: Testes ([3]; 15 min): 0.184 ± 0.006 % ID/g
Biodistribution: Thymus ([3]; 15 min): 0.62 ± 0.17 % ID/g
Biodistribution: Thyroid ([3]; 15 min): 6.94 ± 1.04 % ID/g
Biodistribution: Adrenals ([3]; 30 min): 6.6 % ID/g and 6.56 ± 1.20 % ID/g
Biodistribution: Bladder ([3]; 30 min): 0.42 ± 0.08 % ID/g
Biodistribution: Blood ([3]; 30 min): 0.16 ± 0.01 % ID/g
Biodistribution: Bone ([3]; 30 min): 0.70 ± 0.02 % ID/g
Biodistribution: Brain ([3]; 30 min): 0.14 ± 0.01 % ID/g
Biodistribution: GIT ([3]; 30 min): 0.90 ± 0.03 % ID/g
Biodistribution: Heart ([3]; 30 min): 5.59 ± 0.26 % ID/g
Biodistribution: Kidney ([3]; 30 min): 3.62 ± 0.53 % ID/g
Biodistribution: Liver ([3]; 30 min): 0.54 ± 0.18 % ID/g
Biodistribution: Lungs ([3]; 30 min): 8.82 ± 0.53 % ID/g
Biodistribution: Muscle ([3]; 30 min): 0.55 ± 0.03 % ID/g
Biodistribution: Olfactory bulbs ([3]; 30 min): 0.28 ± 0.03 % ID/g
Biodistribution: Pancreas ([3]; 30 min): 1.33 ± 0.16 % ID/g
Biodistribution: Skin ([3]; 30 min): 0.49 ± 0.02 % ID/g
Biodistribution: Spleen ([3]; 30 min): 4.71 ± 0.61 % ID/g
Biodistribution: Stomach ([3]; 30 min): 0.32 ± 0.04 % ID/g
Biodistribution: Testes ([3]; 30 min): 0.209 ± 0.007 % ID/g
Biodistribution: Thymus ([3]; 30 min): 0.66 ± 0.14 % ID/g
Biodistribution: Thyroid ([3]; 30 min): 7.99 ± 1.83 % ID/g
Biodistribution: Adrenals ([3]; 60 min): 7.82 ± 1.73 % ID/g
Biodistribution: Bladder ([3]; 60 min): 0.72 ± 0.17 % ID/g
Biodistribution: Blood ([3]; 60 min): 0.14 ± 0.01 % ID/g
Biodistribution: Bone ([3]; 60 min): 0.79 ± 0.03 % ID/g
Biodistribution: Brain ([3]; 60 min): 0.13 ± 0.02 % ID/g
Biodistribution: GIT ([3]; 60 min): 1.31 ± 0.08 % ID/g
Biodistribution: Heart ([3]; 60 min): 6.45 ± 0.43 % ID/g
Biodistribution: Kidney ([3]; 60 min): 3.53 ± 0.24 % ID/g
Biodistribution: Liver ([3]; 60 min): 0.40 ± 0.05 % ID/g
Biodistribution: Lungs ([3]; 60 min): 5.66 ± 0.56 % ID/g
Biodistribution: Muscle ([3]; 60 min): 0.43 ± 0.02 % ID/g
Biodistribution: Olfactory bulbs ([3]; 60 min): 0.29 ± 0.03 % ID/g
Biodistribution: Pancreas ([3]; 60 min): 1.08 ± 0.19 % ID/g
Biodistribution: Skin ([3]; 60 min): 0.48 ± 0.04 % ID/g
Biodistribution: Spleen ([3]; 60 min): 4.51 ± 0.70 % ID/g
Biodistribution: Stomach ([3]; 60 min): 0.41 ± 0.09 % ID/g
Biodistribution: Testes ([3]; 60 min): 0.266 ± 0.019 % ID/g
Biodistribution: Thymus ([3]; 60 min): 0.77 ± 0.12 % ID/g
Biodistribution: Thyroid ([3]; 60 min): 9.90 ± 3.67 % ID/g
Biodistribution: Bladder ([3]; 4 hours): 0.80 ± 0.11 % ID/g
Biodistribution: Blood ([3]; 4 hours): 0.16 ± 0.01 % ID/g
Biodistribution: Bone ([3]; 4 hours): 1.0 % ID/g and 1.07 ± 0.05 % ID/g
Biodistribution: Brain ([3]; 4 hours): 0.15 ± 0.01 % ID/g
Biodistribution: GIT ([3]; 4 hours): 1.90 ± 0.09 % ID/g
Biodistribution: Heart ([3]; 4 hours): 4.29 ± 0.86 % ID/g
Biodistribution: Kidney ([3]; 4 hours): 2.4 % ID/g and 2.41 ± 0.40 % ID/g
Biodistribution: Liver ([3]; 4 hours): 0.29 ± 0.04 % ID/g
Biodistribution: Lungs ([3]; 4 hours): 2.80 ± 0.51 % ID/g
Biodistribution: Muscle ([3]; 4 hours): 0.30 ± 0.05 % ID/g
Biodistribution: Olfactory bulbs ([3]; 4 hours): 0.31 % ID/g and 0.31 ± 0.05 % ID/g
Biodistribution: Pancreas ([3]; 4 hours): 0.56 ± 0.09 % ID/g
Biodistribution: Skin ([3]; 4 hours): 0.65 ± 0.05 % ID/g
Biodistribution: Spleen ([3]; 4 hours): 2.88 ± 0.56 % ID/g
Biodistribution: Stomach ([3]; 4 hours): 0.79 ± 0.16 % ID/g
Biodistribution: Testes ([3]; 4 hours): 0.349 ± 0.011 % ID/g
Biodistribution: Thymus ([3]; 4 hours): 0.91 ± 0.05 % ID/g
Biodistribution: Thyroid ([3]; 4 hours): 7.97 ± 1.37 % ID/g
Blood activity level / concentration in the blood over the 4 h study period ([3]; throughout 15 min to 4 h): 0.23%

CCCN(CCC)C(=O)Cc1c(-c2ccc(OCCF)cc2)nc2ccc(Cl)cn12 [PBR103, 2-(2-(4-(2-fluoroethoxy)phenyl)-6-chloroimidazo[1,2-a]pyridin-3-yl)-N,N-dipropylacetamide]
IC50 [1]: 1.84 µM
chromatographic logP (LogP HPLC): 3.44 ± 0.11
IC50 [2]: 51.3 nM

CCN(CC)C(=O)Cc1c(-c2ccc(OCCCF)cc2)nc2c(Cl)cc(Cl)cn12 [PBR 130, 2-(2-(4-(3-fluoropropoxy)phenyl)-6,8-dichloroimidazo[1,2-a]pyridin-3-yl)-N,N-diethylacetamide]
CBR, % @ 10^−5M [1]: 50% @ 10^−5M
IC50 [1]: > 5 µM
chromatographic logP (LogP HPLC): 3.43 ± 0.1
IC50 [2]: 20 nM

CN(C(=O)Cc1c(-c2ccc(OCCF)cc2)nc2c(Cl)cc(Cl)cn12)c1ccccc1 [PBR 143, 2-(2-(4-(2-fluoroethoxy)phenyl)-6,8-dichloroimidazo[1,2-a]pyridin-3-yl)-N-methyl-N-phenylacetamide]
CBR, % @ 10^−5M [1]: 50% @ 10^−5M
chromatographic logP (LogP HPLC): 3.85 ± 0.12
IC50 [2]: 6.4 nM

CNC(=O)Cc1c(-c2ccc(OCCF)cc2)nc2ccc(Cl)cn12 [PBR106, 2-(2-(4-(2-fluoroethoxy)phenyl)-6-chloroimidazo[1,2-a]pyridin-3-yl)-N-methylacetamide]
IC50 [1]: 0.548 µM
chromatographic logP (LogP HPLC): 2.05 ± 0.07
IC50 [2]: 170 nM
